Consider one compound from patent US20170130196A1, “METHOD FOR CULTURING AND PATTERNING CELLS” (President and Fellows of Harvard College, priority 2015, published 2017).

The experiment deals with GFP-expressing A549 human lung cancer cells. The experiment can be described thus: Response of cells-in-string to toxins/drugs (crossed drug-laden string, confocal imaging). It counts as cell-based. As to the method:
Scale bar represents 150 μm.
Cells in string were evaluated for the effect of a toxic drug on cancer cells. Green fluorescent protein (GFP) expressing A549 human lung cancer cells were grown in cotton string in Matrigel for two days. […] Doxorubicin was selected due to its potency in cancer treatment. These two strings were then crossed and sandwiched between two layers of filter paper that were impregnated with Matrigel. This assembly was cultured for two days and the cellular patterns that were transferred to the paper were imaged. […] A second experiment included the doxorubicin-laden string (FIG. 7B).

As to `COc1cccc2c1C(=O)c1c(O)c3c(c(O)c1C2=O)C[C@@](O)(C(=O)CO)C[C@@H]3O[C@H]1C[C@H](N)[C@H](O)[C@H](C)O1` [Doxorubicin], the “cell death of GFP-A549 cells where exposed to drug-laden top string” value (1 μM Doxorubicin embedded in top string, cells grown in silk string for two days, top string removed following 24 h culture (FIG. 7B)) is “died in the area where they were exposed to the top string”. Moreover, the “cell death of GFP-A549 cells where contacted by drug-laden top string” value (1 mM Doxorubicin encapsulated in string, cells in cotton string in Matrigel, crossed, sandwiched between Matrigel-impregnated filter paper, cultured two days) was “died on the region where they contacted the top string containing doxorubicin”.
